Patent US5041423A, “Antibiotics of the mureidomycin group, their preparation, and their therapeutic use” (Sankyo Company, Limited, priority 1987, dated 1991)
≈ marks a conversion by molar mass, not a printed value.

Legend:
[1] = Solubility (physico-chemical properties)
[2] = Toxicity in mice after intravenous administration; type: in vivo; conditions: intravenously 400 mg/kg
[3] = test system: Pseudomonas aeruginosa ATCC 13388; assay: MIC by agar dilution method, Mueller-Hinton agar; type: cell-based
Method: (§1) The minimal inhibitory concentrations (MIC) of mureidomycins E and F against various Gram-positive and Gram-negative bacteria were determined by the agar dilution method, using a Mueller-Hinton agar medium (produced by Difco).

[4] = test system: Pseudomonas aeruginosa SANK 75175; assay: MIC by agar dilution method, Mueller-Hinton agar; type: cell-based
Method: as §1

[5] = test system: Pseudomonas aeruginosa NRRL B1000; assay: MIC by agar dilution method, Mueller-Hinton agar; type: cell-based
Method: as §1

[6] = test system: Escherichia coli NIHJ JC-2; assay: MIC by agar dilution method, Mueller-Hinton agar; type: cell-based
Method: as §1

[7] = test system: Pseudomonas aeruginosa SANK 75775; assay: MIC by agar dilution method, Mueller-Hinton agar; type: cell-based
Method: as §1

[8] = test system: Staphylococcus aureus FDA 209P JC-1; assay: MIC by agar dilution method, Mueller-Hinton agar; type: cell-based
Method: as §1

[9] = test system: Proteus mirabilis SANK 70461; assay: MIC by agar dilution method, Mueller-Hinton agar; type: cell-based
Method: as §1

[10] = test system: Serratia marcescens SANK 73060; assay: MIC by agar dilution method, Mueller-Hinton agar; type: cell-based
Method: as §1

[11] = test system: Pseudomonas aeruginosa SANK 70579; assay: MIC by agar dilution method, Mueller-Hinton agar; type: cell-based
Method: as §1

[12] = test system: Pseudomonas aeruginosa NCTC 10490; assay: MIC by agar dilution method, Mueller-Hinton agar; type: cell-based
Method: as §1

[13] = test system: Pseudomonas aeruginosa SANK 70970; assay: MIC by agar dilution method, Mueller-Hinton agar; type: cell-based
Method: as §1

[14] = test system: Pseudomonas aeruginosa SANK 70579; assay: Growth inhibition test of derivatives; type: cell-based

**Q.** What does the source list for CSCC[C@H](NC(=O)NC(Cc1cccc(O)c1)C(=O)O)C(=O)N[C@@H](C(=O)NC=C1CC(O)C(n2ccc(=O)[nH]c2=O)O1)C(C)N(C)C(=O)[C@@H](N)Cc1cccc(O)c1 (some centres unmarked) [Mureidomycin A, reference compound]?
**A.** Solubility in acetone [1]: slightly soluble; Solubility in benzene [1]: insoluble; Solubility in chloroform [1]: insoluble; Solubility in ethyl acetate [1]: insoluble; Solubility in methanol [1]: Soluble; Solubility in water [1]: Soluble

**Q.** Which Solubility in acetone [1] does the source give for CSCC[C@@H](NC(=O)N[C@H](Cc1cccc(O)c1)C(=O)O)C(=O)N[C@H](C(=O)N/C=C1/C[C@H](O)[C@@H](n2ccc(=O)[nH]c2=O)O1)[C@H](C)N(C)C(=O)[C@H]1Cc2cccc(O)c2CN1 [Mureidomycin E] here?
**A.** slightly soluble

**Q.** What about the Solubility in benzene [1] of the same compound?
**A.** insoluble

**Q.** And the Solubility in chloroform [1]?
**A.** insoluble

**Q.** And the “Solubility in ethyl acetate” value [1]?
**A.** insoluble

**Q.** What about the Solubility in methanol [1] of the same compound?
**A.** Soluble

**Q.** What about the Solubility in water [1] of the same compound?
**A.** Soluble

**Q.** What about the toxicity [2] of the same compound?
**A.** No toxicity was observed

**Q.** And the MIC [3]?
**A.** 25 µg/mL (≈ 29.3 µM)

**Q.** And the MIC [4]?
**A.** 25 µg/mL (≈ 29.3 µM)

**Q.** What about the MIC [5] of the same compound?
**A.** 25 µg/mL (≈ 29.3 µM)

**Q.** What about the MIC [6] of the same compound?
**A.** > 200 µg/mL

**Q.** And the MIC [7]?
**A.** 6.25 µg/mL (≈ 7.33 µM)

**Q.** And the MIC [8]?
**A.** > 200 µg/mL

**Q.** What about the MIC [9] of the same compound?
**A.** > 200 µg/mL

**Q.** And the MIC [10]?
**A.** > 200 µg/mL

**Q.** What about the MIC [11] of the same compound?
**A.** < 0.4 µg/mL

**Q.** What about the MIC [12] of the same compound?
**A.** < 0.4 µg/mL

**Q.** And the MIC [13]?
**A.** 25 µg/mL (≈ 29.3 µM)

**Q.** Which results are given for CSCC[C@@H](NC(=O)N[C@@H](Cc1cccc(O)c1)C(=O)O)C(=O)N[C@@H](C(=O)N/C=C1/C[C@@H](O)[C@H](n2ccc(=O)[nH]c2=O)O1)[C@@H](C)N(C)C(=O)[C@H]1Cc2cc(O)ccc2CN1 [Mureidomycin F]?
**A.** Solubility in acetone [1]: slightly soluble; Solubility in benzene [1]: insoluble; Solubility in chloroform [1]: insoluble; Solubility in ethyl acetate [1]: insoluble; Solubility in methanol [1]: Soluble; Solubility in water [1]: Soluble; toxicity [2]: No toxicity was observed; MIC [3]: 3.13 µg/mL (≈ 3.67 µM); MIC [4]: 50 µg/mL (≈ 58.6 µM); MIC [5]: 3.13 µg/mL (≈ 3.67 µM); MIC [6]: > 200 µg/mL; MIC [7]: 25 µg/mL (≈ 29.3 µM); MIC [8]: > 200 µg/mL; MIC [9]: > 200 µg/mL; MIC [10]: > 200 µg/mL; MIC [11]: 1.56 µg/mL (≈ 1.83 µM); MIC [12]: 0.8 µg/mL (≈ 0.938 µM); MIC [13]: 100 µg/mL (≈ 117 µM)

**Q.** Which inhibition of growth [14] does the source give for methylmureidomycin E here?
**A.** inhibit the growth

**Q.** And the Solubility in water [1]?
**A.** soluble

**Q.** With methylmureidomycin F as the compound, how does the inhibition of growth [14] read?
**A.** inhibit the growth

**Q.** What about the Solubility in water [1] of the same compound?
**A.** soluble

**Q.** What does the source list for phenylmureidomycin E?
**A.** inhibition of growth [14]: inhibit the growth; Solubility in water [1]: soluble

**Q.** With phenylmureidomycin F as the compound, how does the inhibition of growth [14] read?
**A.** inhibit the growth

**Q.** And the Solubility in water [1]?
**A.** soluble
